Data taken from article PMC10067855, “Sialidases and fucosidases of Akkermansia muciniphila are crucial for growth on mucin and nutrient sharing with mucus-associated gut bacteria” (Nature Communications, 2023).
pIC50: −log10 of the molar value.

Key:
Test in all cases: inhibition of pNPFuc hydrolysis, A405
Assay type in all cases: biochemical
[1] = molecular target: T1, AmGH29C (Akkermansia muciniphila, UniProt B2UNB9)
T1 construct: gene Amuc_0392; mature peptide lacking the signal peptide
T1 sequence (B2UNB9 41-709): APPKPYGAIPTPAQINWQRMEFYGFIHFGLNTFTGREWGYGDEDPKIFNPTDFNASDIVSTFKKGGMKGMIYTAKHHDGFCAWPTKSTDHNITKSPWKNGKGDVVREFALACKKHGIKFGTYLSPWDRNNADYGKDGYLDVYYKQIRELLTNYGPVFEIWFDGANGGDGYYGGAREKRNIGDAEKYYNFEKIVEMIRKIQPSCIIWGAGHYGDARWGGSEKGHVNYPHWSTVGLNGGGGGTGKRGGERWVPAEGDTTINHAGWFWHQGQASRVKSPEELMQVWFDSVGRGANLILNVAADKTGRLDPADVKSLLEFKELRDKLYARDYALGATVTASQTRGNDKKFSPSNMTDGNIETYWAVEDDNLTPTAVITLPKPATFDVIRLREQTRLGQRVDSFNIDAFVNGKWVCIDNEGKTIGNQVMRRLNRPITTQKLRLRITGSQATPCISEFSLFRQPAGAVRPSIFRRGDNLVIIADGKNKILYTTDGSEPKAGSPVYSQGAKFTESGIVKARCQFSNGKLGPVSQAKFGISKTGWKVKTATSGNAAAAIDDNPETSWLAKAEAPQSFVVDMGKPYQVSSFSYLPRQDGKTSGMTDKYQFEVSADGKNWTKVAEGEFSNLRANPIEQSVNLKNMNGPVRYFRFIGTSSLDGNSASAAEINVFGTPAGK

[2] = molecular target: T2, AmGH29A (Akkermansia muciniphila, UniProt B2UL68)
T2 construct: gene Amuc_0010; mature peptide lacking the signal peptide
T2 sequence (B2UL68 20-538): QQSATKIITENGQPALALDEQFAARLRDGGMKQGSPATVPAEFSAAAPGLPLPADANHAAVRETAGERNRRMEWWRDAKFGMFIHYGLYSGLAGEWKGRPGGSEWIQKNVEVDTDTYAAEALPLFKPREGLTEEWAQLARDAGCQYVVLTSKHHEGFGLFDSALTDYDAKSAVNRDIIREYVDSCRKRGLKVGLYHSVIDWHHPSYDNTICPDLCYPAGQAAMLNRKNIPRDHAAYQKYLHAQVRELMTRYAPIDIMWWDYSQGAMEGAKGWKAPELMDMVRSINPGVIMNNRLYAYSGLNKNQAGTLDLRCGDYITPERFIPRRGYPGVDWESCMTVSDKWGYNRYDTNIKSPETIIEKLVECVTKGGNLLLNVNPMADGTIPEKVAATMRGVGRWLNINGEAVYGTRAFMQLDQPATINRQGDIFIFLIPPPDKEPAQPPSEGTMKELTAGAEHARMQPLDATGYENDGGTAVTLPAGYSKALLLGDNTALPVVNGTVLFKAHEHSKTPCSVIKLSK

[3] = molecular target: T3, AmGH29B (Akkermansia muciniphila, UniProt B2ULU6)
T3 construct: gene Amuc_0146; mature peptide lacking the signal peptide
T3 sequence (B2ULU6 27-711): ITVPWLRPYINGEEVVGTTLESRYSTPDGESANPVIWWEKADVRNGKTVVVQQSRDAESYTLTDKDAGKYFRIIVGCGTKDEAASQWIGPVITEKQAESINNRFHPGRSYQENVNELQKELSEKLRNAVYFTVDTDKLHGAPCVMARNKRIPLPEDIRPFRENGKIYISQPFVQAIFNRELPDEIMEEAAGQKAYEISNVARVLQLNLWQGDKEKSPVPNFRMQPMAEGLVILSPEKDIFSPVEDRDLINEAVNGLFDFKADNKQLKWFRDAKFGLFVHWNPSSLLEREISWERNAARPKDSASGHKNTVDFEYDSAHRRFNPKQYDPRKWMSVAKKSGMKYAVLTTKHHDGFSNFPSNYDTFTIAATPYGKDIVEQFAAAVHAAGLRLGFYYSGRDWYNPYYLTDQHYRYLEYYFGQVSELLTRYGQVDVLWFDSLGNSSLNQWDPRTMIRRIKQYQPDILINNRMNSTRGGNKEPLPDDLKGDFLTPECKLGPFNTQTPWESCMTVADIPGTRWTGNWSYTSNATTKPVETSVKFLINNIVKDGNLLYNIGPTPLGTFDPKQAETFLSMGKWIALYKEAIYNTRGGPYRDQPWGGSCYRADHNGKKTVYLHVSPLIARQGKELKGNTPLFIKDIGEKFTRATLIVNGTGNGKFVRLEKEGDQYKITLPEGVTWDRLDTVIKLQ

[4] = molecular target: T4, AmGH29D (Akkermansia muciniphila, UniProt B2UQE4)
T4 construct: gene Amuc_0846; mature peptide lacking the signal peptide
T4 sequence (B2UQE4 25-704): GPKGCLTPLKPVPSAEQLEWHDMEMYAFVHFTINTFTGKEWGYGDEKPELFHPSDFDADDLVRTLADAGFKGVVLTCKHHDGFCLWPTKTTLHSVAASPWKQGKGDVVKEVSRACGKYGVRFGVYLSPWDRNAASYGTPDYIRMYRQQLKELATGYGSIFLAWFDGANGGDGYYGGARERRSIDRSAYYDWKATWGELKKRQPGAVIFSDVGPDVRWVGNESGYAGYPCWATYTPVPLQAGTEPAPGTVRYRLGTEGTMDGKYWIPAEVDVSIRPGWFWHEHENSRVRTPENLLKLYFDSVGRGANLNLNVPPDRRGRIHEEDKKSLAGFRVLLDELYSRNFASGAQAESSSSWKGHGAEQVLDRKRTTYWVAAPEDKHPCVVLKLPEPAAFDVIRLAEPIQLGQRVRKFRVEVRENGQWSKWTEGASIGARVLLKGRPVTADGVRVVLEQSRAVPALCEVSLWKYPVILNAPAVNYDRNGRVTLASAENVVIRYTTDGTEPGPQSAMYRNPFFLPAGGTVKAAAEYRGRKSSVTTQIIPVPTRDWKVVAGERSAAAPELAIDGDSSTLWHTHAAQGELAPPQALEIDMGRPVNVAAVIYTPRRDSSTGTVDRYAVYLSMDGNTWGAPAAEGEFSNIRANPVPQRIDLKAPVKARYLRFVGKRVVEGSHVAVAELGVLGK

- pIC50 [1]: > 4.27
- pIC50 [2]: > 4.27
- pIC50 [3]: > 4.27
- pIC50 [4]: > 4.27
Compound: C[C@@H]1NC[C@@H](O)[C@H](O)[C@@H]1O [DFJ, 1-Deoxyfuconojirimycin]
